{
  "source": "patent US20250049791A1",
  "about": "“Synthesis of MEK7 Inhibitors and methods of Use Thereof” (Northwestern University, priority 2023, published 2025)",
  "key": {"EGFR": {"molecular_target": "T1, EGFR (Homo sapiens, UniProt P00533)", "T1 construct": "purchased DiscoverX (Eurofins)", "T1 sequence (P00533 25-1210)": "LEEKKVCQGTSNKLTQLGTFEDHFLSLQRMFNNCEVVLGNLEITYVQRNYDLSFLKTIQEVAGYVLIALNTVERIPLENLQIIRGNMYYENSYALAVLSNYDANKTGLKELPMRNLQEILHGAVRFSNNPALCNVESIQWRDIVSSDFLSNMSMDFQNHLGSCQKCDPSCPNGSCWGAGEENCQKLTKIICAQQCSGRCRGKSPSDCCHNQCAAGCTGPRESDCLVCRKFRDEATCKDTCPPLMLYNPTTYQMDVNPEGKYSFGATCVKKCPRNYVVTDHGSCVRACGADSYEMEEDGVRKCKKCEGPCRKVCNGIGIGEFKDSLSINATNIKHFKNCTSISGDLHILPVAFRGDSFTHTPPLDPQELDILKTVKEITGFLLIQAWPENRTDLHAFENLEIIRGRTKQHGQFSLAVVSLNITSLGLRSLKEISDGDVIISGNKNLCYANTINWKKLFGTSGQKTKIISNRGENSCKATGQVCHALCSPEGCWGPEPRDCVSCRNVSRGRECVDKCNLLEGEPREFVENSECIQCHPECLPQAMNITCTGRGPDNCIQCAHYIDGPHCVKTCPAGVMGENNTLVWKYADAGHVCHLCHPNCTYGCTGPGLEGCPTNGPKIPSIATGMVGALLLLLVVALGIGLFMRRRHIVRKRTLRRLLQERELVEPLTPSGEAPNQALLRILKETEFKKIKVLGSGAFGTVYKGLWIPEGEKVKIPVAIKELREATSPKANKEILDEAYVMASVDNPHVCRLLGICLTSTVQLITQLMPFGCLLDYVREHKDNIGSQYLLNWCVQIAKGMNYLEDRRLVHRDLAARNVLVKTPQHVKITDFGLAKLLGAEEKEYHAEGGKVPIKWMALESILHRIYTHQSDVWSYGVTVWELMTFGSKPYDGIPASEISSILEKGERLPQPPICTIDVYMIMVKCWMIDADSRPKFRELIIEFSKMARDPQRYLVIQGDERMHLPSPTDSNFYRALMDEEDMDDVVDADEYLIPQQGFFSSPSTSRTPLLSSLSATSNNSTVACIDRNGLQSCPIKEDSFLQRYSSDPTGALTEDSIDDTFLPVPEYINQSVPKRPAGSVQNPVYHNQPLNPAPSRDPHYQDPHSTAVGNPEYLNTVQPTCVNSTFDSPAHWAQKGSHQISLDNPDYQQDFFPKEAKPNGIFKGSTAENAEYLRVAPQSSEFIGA", "assay": "ScanEDGE competition binding, EGFR", "settings": "at 1 μM; b168 prints 1 M", "source_text": "(§1) The ScanEDGE assay, completed by DiscoverX (Eurofins) is a proprietary active site-directed competition binding assay. Compounds that bind the kinase active site prevent kinase binding to the immobilized ligand, reducing the amount of kinase captured on the solid support. Hits are identified by measuring the amount of kinase captured in experimental vs, control samples by a qPCR method that detects an associated DNA label. According to data provided by Eurofins, a typical hit at 5-10% of control signal in a 1 μM assay as shown above is generally associated with a KD in the range of 100-1,000 nM. Readings with greater than 35% of control signal correspond to exceeding large dissociation constants."}, "[1]": {"tested_on": "JNK and ATF2 phosphorylation in T-ALL cells", "assay": "Immunoblot analysis of JNK and ATF2 phosphorylation", "type": "cell-based", "protocol": "Cells were lysed with SDS lysis buffer containing (10 mM Tris pH 7.4 containing 1% SDS and 1 mM PMSF) and supplemented with Halt Protease and Phosphatase Inhibitor Cocktail (ThermoFisher) after 24 h of incubation. Protein lysates were electrophoresed onto SDS PAGE gel and transferred to the PVDF membrane using the iBLOT system. Antibodies phospho-SAPK/JNK (clone 81E11) (#4668) and SAPK/JNK (#9252) were used at 1:5000 dilution. Secondary antibodies cross-linked with HRP (anti-rabbit IgG #7074 and anti-mouse IgG #7076) were used for respective primary antibodies at concentrations 1:20,000. Protein detection was performed using West Femto Maximum Sensitivity Substrate (ThermoFisher) and Amersham Hyperfilm ECL (GE)."}, "90 wildtype kinases": {"tested_on": "90 wildtype kinases", "assay": "ScanEDGE 97-kinase selectivity screen (DiscoverX/Eurofins), panel and S-score", "type": "binding", "source_text": "as §1\nSelectivity score (or S-score) is a quantitative measure of compound selectivity corresponding to the ratio of hits to the number of screened wildtype kinases."}, "[2]": {"tested_on": "T-ALL cell lines (JURKAT, KOPT-K1, RPMI-8402, ALL-SIL)", "assay": "Cytotoxicity assay (CellTiter-Glo), T-ALL cell lines", "type": "cell-based", "settings": "48 hours"}, "[3]": {"molecular_target": "T2, full-length MAP2K7 N-terminal GST fusion protein (Homo sapiens, UniProt O14733)", "T2 construct": "purchased Carna Biosciences 07-147-10; host or cells: E. coli", "T2 sequence (O14733 1-419)": "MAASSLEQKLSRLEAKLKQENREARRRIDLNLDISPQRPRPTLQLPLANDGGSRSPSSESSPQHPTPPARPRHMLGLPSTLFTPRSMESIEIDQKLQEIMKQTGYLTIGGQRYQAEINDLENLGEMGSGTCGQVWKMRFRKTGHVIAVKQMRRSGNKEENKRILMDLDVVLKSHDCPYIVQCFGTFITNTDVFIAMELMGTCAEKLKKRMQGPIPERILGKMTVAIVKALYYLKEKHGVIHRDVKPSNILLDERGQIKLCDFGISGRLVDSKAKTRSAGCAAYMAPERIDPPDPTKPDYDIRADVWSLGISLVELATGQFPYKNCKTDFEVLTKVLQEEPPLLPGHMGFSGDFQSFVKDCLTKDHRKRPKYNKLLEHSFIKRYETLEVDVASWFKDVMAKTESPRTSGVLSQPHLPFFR", "assay": "Whole-protein LC/TOF-MS of covalent labeling", "type": "binding", "settings": "2 equiv inhibitor, 5° C., 12 hours", "protocol": "The construct was full-length MAP2K7 (1-419 amino acids of accession number NP_660186.1), which was prepared by the manufacturer as an N-terminal GST-fusion protein using an E. coli expression system. The construct was then purified by glutathione sepharose chromatography and shipped in a storage buffer containing 50 mM Tris —HCl, 150 mM NaCl, 0.05 mM Brij-35, 1 mM DTT, and 10% glycerol at pH=7.5.\nEach whole-protein MS experiment was run with a 10 uL injection of a sample containing 50 μg of protein diluted to a final volume of 100 μL. The construct aliquots were first diluted to the appropriate volume with an aqueous solution of 150 mM NaCl and 50 mM Tris —HCl. The diluted samples were loaded on a Pierce spin column (ThermoFisher Scientific catalog number: 87777) to remove Brij-35 and finally eluted with the appropriate volume of the same buffer. Finally, 1.3 uL of DMSO (vehicle) or a 1 mM DMSO solution of covalent inhibitor was added, and the resulting roughly 101 uL solutions were incubated at 5° C. for 12 hours. The incubates were injected (10 uL) on an Agilent 6201 MSLC-TOF (ESI) with a protein column. A 10 minute water:acetonitrile gradient was performed, eluting recombinant proteins of interest in roughly 5 minutes. Masses were deconvoluted using MassHunter BioConfirm (maximum entropy)."}, "MEK3": {"molecular_target": "T3, MEK3 (Homo sapiens, UniProt P46734)", "T3 sequence (P46734 1-347)": "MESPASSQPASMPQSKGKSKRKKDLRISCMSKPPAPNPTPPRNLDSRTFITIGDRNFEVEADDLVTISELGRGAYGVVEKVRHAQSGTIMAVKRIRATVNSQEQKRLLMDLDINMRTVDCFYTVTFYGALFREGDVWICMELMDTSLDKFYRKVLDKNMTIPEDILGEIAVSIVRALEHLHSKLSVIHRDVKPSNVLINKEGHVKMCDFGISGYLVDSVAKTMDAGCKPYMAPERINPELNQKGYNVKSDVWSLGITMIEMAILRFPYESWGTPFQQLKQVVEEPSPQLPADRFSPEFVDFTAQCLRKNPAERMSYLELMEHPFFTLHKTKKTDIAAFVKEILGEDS", "assay": "Additional selectivity assay, MEK3 (FIG. 9)", "type": "binding"}, "MEK1/2": {"tested_on": "MEK1/2", "assay": "ScanEDGE competition binding, MEK1/2", "settings": "ScanEDGE screen", "source_text": "as §1"}, "MEK6": {"molecular_target": "T4, MEK6 (Homo sapiens, UniProt P52564)", "T4 sequence (P52564 1-334)": "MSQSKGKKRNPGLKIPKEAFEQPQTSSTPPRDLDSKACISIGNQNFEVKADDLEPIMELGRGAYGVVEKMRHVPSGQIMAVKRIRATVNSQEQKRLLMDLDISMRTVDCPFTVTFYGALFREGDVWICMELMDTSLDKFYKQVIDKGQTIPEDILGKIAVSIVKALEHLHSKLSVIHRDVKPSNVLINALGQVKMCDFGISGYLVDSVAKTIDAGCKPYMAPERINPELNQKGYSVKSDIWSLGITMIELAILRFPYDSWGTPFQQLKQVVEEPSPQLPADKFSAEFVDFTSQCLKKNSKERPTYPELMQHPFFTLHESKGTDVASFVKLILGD", "assay": "Additional selectivity assay, MEK6 (FIG. 9)", "type": "binding"}},
  "note": "Entries after “also recorded” stand apart in the source; their conditions may differ.",
  "data": [
    {"smiles": "O=C(CCl)Nc1cccc(Oc2cc(NCc3ccccc3)ncn2)c1", "note": "[Compound 25, N-(3-((6-(benzylamino)pyrimidin-4-yl)oxy)phenyl)-2-chloroacetamide]", "values": [
      {"measurement": "binding to EGFR", "setting": "EGFR", "value": "interacted significantly; also recorded: appreciably bound"},
      {"measurement": "concentration that potently attenuated JNK and ATF2 phosphorylation", "setting": "[1]; 24 h incubation", "value": "5 to 10", "unit": "µM"},
      {"measurement": "effect on phosphorylation of JNK and ATF2", "setting": "[1]; western blot, dose-response", "value": "decreased phosphorylation"},
      {"measurement": "Number of Hits, S(1)", "setting": "90 wildtype kinases; 1000 nM, 90 non-mutant kinases", "value": 0},
      {"measurement": "Number of Hits, S(10)", "setting": "90 wildtype kinases; 1000 nM, 90 non-mutant kinases", "value": 1},
      {"measurement": "Number of Hits, S(35)", "setting": "90 wildtype kinases; 1000 nM, 90 non-mutant kinases", "value": 1},
      {"measurement": "Selectivity Score S(10)", "setting": "90 wildtype kinases; 1000 nM, 90 non-mutant kinases", "value": 0.011},
      {"measurement": "Selectivity Score S(35)", "setting": "90 wildtype kinases; 1000 nM, 90 non-mutant kinases", "value": 0.011},
      {"measurement": "selectivity score after adding MEK3, MEK5 and MEK6 (1/93)", "setting": "90 wildtype kinases; 93 kinases", "value": 0.011},
      {"measurement": "dose-response cytotoxicity", "setting": "[2]", "value": "marked cytotoxicity"},
      {"measurement": "covalent labeling of MAP2K7, whole-protein MS", "setting": "[3]", "value": "covalent engagement; also recorded: Complete labeling"},
      {"measurement": "activity/binding at MEK3", "setting": "MEK3", "value": "inactive; also recorded: lack of binding"},
      {"measurement": "activity on MEK1/2", "setting": "MEK1/2", "value": "no appreciable activity"},
      {"measurement": "activity/binding at MEK6", "setting": "MEK6", "value": "inactive; also recorded: lack of binding"}
    ]}
  ]
}
